Experimental data reported in patent publication US20230028441A1, “NOVEL HETEROARYL-TRIAZOLE COMPOUNDS AS PESTICIDES” (Bayer Aktiengesellschaft, priority 2019, published 2023).

Tests used:
Format in all cases: in vivo
[1] = tested on: larvae of the southern green stink bug (Nezara viridula); assay: Nezara viridula spray test; settings: in Hordeum vulgare, 96 h
How it was run: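 Percent mortality of southern green stink bug larvae read 4 days after spraying infested Hordeum vulgare. Test solutions: compound in acetone plus dimethylformamide, diluted with emulsifier-containing water (1000 ppm alkylarylpolyglycol ether).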

[2] = tested on: adult unfed cat fleas (Ctenocephalides felis); assay: Ctenocephalides felis oral test; settings: 48 h, 100 ppm in cattle blood, after 2 days
How it was run: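 Percent flea mortality recorded at 2 days. Compound was dissolved in dimethyl sulfoxide and diluted into cattle blood, which ~20 unfed adult cat fleas ingested through parafilm from a 37°C-heated chamber, their own chamber kept at room temperature.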

[3] = tested on: fall armyworm larvae (Spodoptera frugiperda); assay: Spodoptera frugiperda spray test (maize leaf sections); settings: 168 h
How it was run: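 Percent kill of Spodoptera frugiperda larvae was recorded 7 days after infesting dried, treated maize leaf sections. Spray solutions were made from an acetone/DMF compound preparation diluted with 1000 ppm emulsifier-containing water.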

[4] = tested on: adult brown dog ticks (Rhipicephalus sanguineus); assay: Rhipicephalus sanguineus in-vitro contact test with adult brown dog ticks; settings: after 48 hours, read-out: efficacy (ticks dead or moribund); for pest or weed control at 1 µg/cm2, 100 g/ha: 1 μg/cm^2 (=100 g/ha); for pest or weed control at 5 µg/cm2, 500 g/ha: 5 μg/cm^2 (=500 g/ha)
How it was run: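 Efficacy is the percentage of adult ticks dead or moribund, meaning immotile or uncoordinated and unable to escape 45-50° C. heat within 5 min. Read 48 h after 5-10 ticks were enclosed at room temperature in acetone-coated glass tubes. Dose 5 μg/cm^2, from a 900 ppm coating solution.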

[5] = tested on: green peach aphid (Myzus persicae); assay: Myzus persicae spray test; settings: foliar, 120 h, after 5 days, Chinese cabbage leaf disks
How it was run: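 Chinese cabbage leaf disks carrying all instars of Myzus persicae were sprayed with compound. The formulation was acetone/dimethylformamide diluted in water with 1000 ppm alkylarylpolyglycol ether emulsifier. Percent mortality was scored after 5 days, with 100% meaning all aphids killed.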

[6] = tested on: cattle tick larvae (Rhipicephalus microplus), strain Parkhurst, resistant against synthetic pyrethroids; assay: Rhipicephalus (Boophilus) microplus in-vitro contact test, larval cattle tick; settings: 5 μg/cm^2 (=500 g/ha), after 48 hours, read-out: efficacy (larvae dead or moribund)
How it was run: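 Efficacy, 100% meaning all larvae dead or moribund, was judged at 48 h from loss of negative geotactic climbing. Larvae of the Parkhurst strain, 20–50 per tube, were exposed at 27° C and 85% humidity to acetone-coated tube surfaces; 900 ppm corresponded to 5 μg/cm^2.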

[7] = tested on: caterpillars of the fall army worm (Spodoptera frugiperda); assay: Spodoptera frugiperda spray test (cotton leaves); settings: 168 h
How it was run: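 Cotton leaves sprayed with compound in water/DMF with 1000 ppm alkylaryl polyglycol ether emulsifier, ammonium salt and/or penetration enhancer at 1000 ppm added if necessary, then infested with fall armyworm caterpillars. Mortality in % scored after 7 days; 100% means all caterpillars killed.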

[8] = tested on: green peach aphid (Myzus persicae); assay: Myzus persicae oral test; settings: 120 h
How it was run: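 Aphids of mixed population ingest the compound preparation by sucking through a parafilm sheet stretched over wells holding test solution plus IPL41 insect medium (33%+15% sugar). Kill rate in percent is determined five days later.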

[9] = tested on: two spotted spidermite (Tetranychus urticae); assay: Tetranychus urticae spray test, OP-resistant; settings: foliar, 144 h, after 6 days, French bean leaf disks
Method: Solvent: 78.0 parts by weight acetone • 1.5 parts by weight dimethylformamide
Emulsifier: alkylarylpolyglycol ether
To produce a suitable preparation of active compound, 1 part by weight of active compound is mixed with the stated amount of solvents and is diluted with water, containing an emulsifier concentration of 1000 ppm, to the desired concentration. Further test concentrations are prepared by dilution with emulsifier containing water.
French bean (Phaseolus vulgaris) leaf disks infected with all instars of the two spotted spidermite (Tetranychus urticae), are sprayed with a preparation of the active ingredient of the desired concentration.
After 6 days mortality in % is determined. 100% means all spider mites have been killed and 0% means none of the spider mites have been killed.

[10] = tested on: larvae of the banded cucumber beetle (Diabrotica balteata); assay: Diabrotica balteata spray test; settings: 168 h, after 7 days, wheat seeds, read-out: efficacy (seedlings grown up); for pest or weed control at 32 µg/disc, 100 g/ha: 100 g/ha (=32 μg/well); for pest or weed control at 160 µg/disc, 500 g/ha: 500 g/ha (=160 μg/well)
How it was run: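 Efficacy (%) read at day 7: 100% means seedlings grew like untreated, uninfested controls; 0% means no seedlings grew. Wheat seeds germinated 1 day on agar, sprayed with emulsified compound solution (1000 ppm emulsifier in water), then each well infested with 10-20 larvae.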

[11] = tested on: adult engorged female ticks (Rhipicephalus microplus); assay: Rhipicephalus (Boophilus) microplus injection test; settings: 168 h, egg deposition after 7 days, read-out: efficacy (infertile eggs); for pest or weed control at 0.004 mg: 4 μg/animal; for pest or weed control at 0.02 mg: 20 μg/animal
How it was run: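 Efficacy is the share of infertile eggs: 100% means none are fertile, 0% means all are fertile. Egg deposition was checked 7 days after injecting 1 μL of DMSO-diluted compound into the abdomen of five engorged female R. microplus, with doubtful eggs kept about 42 days to hatching. The stock was 10 mg in 0.5 mL DMSO.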

[12] = tested on: southern root-knot nematode (Meloidogyne incognita); assay: Meloidogyne incognita test; settings: 336 h, after 14 days, read-out: nematicidal activity (gall formation)
Method: Solvent: 125.0 parts by weight of acetone
To produce a suitable preparation of active compound, 1 part by weight of active compound is mixed with the stated amount of solvent, and the concentrate is diluted with water to the desired concentration.
Vessels are filled with sand, a solution of the active ingredient, a suspension containing eggs and larvae of the southern root-knot nematode (Meloidogyne incognita) and salad seeds. The salad seeds germinate and the seedlings grow. Galls develop in the roots.
After 14 days the nematicidal activity is determined on the basis of the percentage of gall formation. 100% means no galls were found and 0% means the number of galls found on the roots of the treated plants was equal to that in untreated control plants.

[13] = tested on: cattle ticks (Rhipicephalus microplus) strain Parkhurst, SP-resistant; assay: Rhipicephalus (Boophilus) microplus dip test; settings: 100 ppm, egg deposition after 7 days
Method: Test animal: cattle ticks (Rhipicephalus microplus) strain Parkhurst, SP-resistant
Solvent: dimethyl sulfoxide
To produce a suitable preparation of active compound, 10 mg of active compound are dissolved in 0.5 mL solvent, and the concentrate is diluted with water to the desired concentration.
This compound solution is pipetted into tubes. 8-10 engorged, adult, female cattle ticks (Rhipicephalus microplus) are placed in perforated tubes. These tubes are immersed in the aqueous compound solution until the ticks are completely moistened. After the liquid has drained off, the ticks are transferred to a filter paper in a plastic tray and stored in a climate chamber.
After 7 days egg deposition of fertile eggs is monitored. Eggs where fertility is not visible are stored in a climate chamber till hatching after about 42 days. An efficacy of 100% means all eggs are infertile; 0% means all eggs are fertile.

[14] = tested on: Anopheles funestus strain FUMOZ-R; assay: Anopheles funestus test (ANPHFU surface treatment & contact assay); settings: surface concentration 20 mg/m^2, 30 minutes exposure, 24 hours after contact, read-out: efficacy (mortality)
Method: (§1) Solvent: Aceton+2000 ppm rapeseed oil methyl ester (RME)
(§2) In order to produce a sufficient, active ingredient containing solution it is necessary to solve the test compound in the solvent-mix (acetone at 2 mg/ml/RME 2000 ppm). This solution is pipetted onto a glazed tile and after evaporation of the acetone, adult mosquitoes of the species Anopheles funestus strain FUMOZ-R (Hunt et al., Med. Vet. Entomol. 2005 September; 19(3): 271-275) are placed onto the dried surface. The exposure time is 30 minutes.
(§3) Mortality in percent (%) is determined 24 hours after contact of the insects to the treated surface. 100% mortality means that all tested insects are dead, whereas 0% means that no insect died.

[15] = tested on: adult cat fleas (Ctenocephalides felis); assay: Ctenocephalides felis in-vitro contact test, adult cat flea; settings: 5 μg/cm^2 (=500 g/ha), after 48 hours, read-out: efficacy (fleas dead or moribund)
How it was run: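 Efficacy (%) counts fleas that are dead or moribund, meaning unable to escape heat (45-50 °C, ≤5 min) by climbing. Scoring was done 48 h after 5-10 adults were placed at room temperature in glass tubes. The tubes carried a dried acetone film of compound, 5 μg/cm^2 at 900 ppm.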

[16] = tested on: Blattella germanica strain PAULINIA; assay: Blattella germanica test (BLTTGE surface treatment & contact assay); settings: 24 hours after contact, read-out: efficacy (mortality)
Method: as §1
as §2, with “animals” for “mosquitoes”, “Blattella germanica” for “Anopheles funestus”, “PAULINIA” for “FUMOZ-R (Hunt et al., Med. Vet. Entomol. 2005 September; 19(3): 271-275)”
as §3

[17] = tested on: brown planthopper (Nilaparvata lugens); assay: Nilaparvata lugens spray test; settings: in Oryza sativa, 96 h
How it was run: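 Rice plants (Oryza sativa) sprayed with compound in acetone/DMF diluted in water containing 1000 ppm alkylarylpolyglycol ether emulsifier, then infested with planthoppers. Mortality % scored after 4 days (100% = all killed, 0% = none killed).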

[18] = tested on: Musca domestica strain WHO-N; assay: Musca domestica test (MUSCDO surface treatment & contact assay); settings: 24 hours after contact, read-out: efficacy (mortality)
Method: as §1
(§4) In order to produce a sufficient, active ingredient containing solution it is necessary to solve the test compound in the solvent-mix (acetone at 2 mg/ml/RME 2000 ppm). This solution is pipetted onto a glazed tile and after evaporation of the acetone, adult flies of the species Musca domestica strain WHO-N are placed onto the dried surface. The exposure time is 30 minutes. Mortality in percent (%) is determined 24 hours after contact of the insects to the treated surface. 100% mortality means that all tested insects are dead, whereas 0% means that no insect died.

[19] = tested on: Aedes aegypti strain MONHEIM; assay: Aedes aegypti test (AEDSAE surface treatment & contact assay); settings: 24 hours after contact, read-out: efficacy (mortality)
Method: as §1
as §4, with “mosquitoes” for “flies”, “Aedes aegypti” for “Musca domestica”, “MONHEIM” for “WHO-N”

[20] = surface concentration 4 mg/m^2, 30 minutes exposure
[21] = surface concentration 20 mg/m^2, 30 minutes exposure

Structure (SMILES) | mortality at 100 g/ha [1] | mortality at 500 g/ha [1] | mortality at 100 ppm [2] | mortality at 100 g/ha [3] | mortality at 500 g/ha [3] | pest or weed control at 1 µg/cm2, 100 g/ha [4] | pest or weed control at 5 µg/cm2, 500 g/ha [4] | pest or weed control at 5 µg/cm2 [6] | mortality at 20 ppm [7] | mortality at 4 ppm [8] | mortality at 500 g/ha [9] | pest or weed control at 32 µg/disc, 100 g/ha [10] | pest or weed control at 160 µg/disc, 500 g/ha [10] | pest or weed control at 0.004 mg [11] | pest or weed control at 0.02 mg [11] | also measured
CC(NC(=O)c1cc(Cl)cc(S(C)(=O)=O)c1)c1nc(NC(=O)C2(Cl)CC2)nn1-c1ccc(Cl)cn1 (centres unmarked) [I-012] | 100% | 100% | 100% | 100% | 100% | 100% | 100% | 100% | 100% | 100% | 90% | 100% | 100% | 100% | 100% | mortality at 500 g/ha ([5]; 500 g/ha): 90%
CC(NC(=O)c1cc(Cl)cc(C(F)(F)F)c1)c1nc([S+](C)[O-])nn1-c1ccc(Cl)cn1 (centres unmarked) [I-064] | 100% | 100% | – | 100% | 100% | – | – | – | – | 100% | 100% | 100% | 100% | – | – | pest or weed control at 20 ppm [12]: 90%
CC(NC(=O)c1cc(Cl)cc(S(C)(=O)=O)c1)c1nc(NC(=O)C2CC2)nn1-c1ccc(Cl)cn1 (centres unmarked) [I-013] | – | – | 100% | – | – | – | – | 90% | 100% | – | – | – | – | 100% | 100% | efficacy (infertile eggs) [13]: 80%
C[C@H](NC(=O)c1cc(OC(F)(F)F)cc(C2CC2)c1)c1nc(N(C)C)nn1-c1ncccn1 [I-138] | – | – | – | 100% | – | 100% | 100% | 100% | – | – | – | 100% | – | – | – | mortality at 20 mg/m2 [14]: 90 to 100%; pest or weed control at 5 µg/cm2 [15]: 100%; mortality at 100 g/ha ([5]; 100 g/ha): 90%; mortality at 4 mg/m2 [16, 20]: 90 to 100%; mortality at 20 mg/m2 [16, 21]: 90 to 100%; mortality at 500 g/ha [17]: 100%; mortality at 4 mg/m2 [18, 20]: 90 to 100%; mortality at 20 mg/m2 [18, 21]: 90 to 100%; mortality at 4 mg/m2 [19, 20]: 90 to 100%; mortality at 20 mg/m2 [19, 21]: 90 to 100%
CC(NC(=O)c1cc(Cl)cc(C(F)(F)F)c1)c1nc(NC(=O)CC(F)(F)F)nn1-c1ccc(Cl)cn1 (centres unmarked) [I-016] | – | – | 100% | 100% | 100% | – | – | 100% | 100% | – | 90% | 100% | 100% | 100% | 100% | –
CC(NC(=O)c1cc(Cl)cc(C(F)(F)F)c1)c1nc(NC(=O)OC(C)(C)C)nn1-c1ccc(Cl)cn1 (centres unmarked) [I-003] | – | – | – | – | – | – | – | – | – | – | 90% | – | – | 80% | 100% | –
